In brackets after ≈: the same amount, converted by molar mass. Read-outs that look alike come from different tables or passages of the source.
Assays:
Assay in all cases: Microdilution assay, MIC determination (CLSI M07-A9)
Format in all cases: cell-based
[1] = test system: B. subtilis DSM10; settings: Bacillus subtilis; B. subtilis DSM10; 37° C., 20 h, MHBII media; read-out: MIC
Procedure: (§1) E. coli DSM 1116; E. coli BW25113; S. typhimurium TA100; Bacillus subtilis DSM10; M. phlei DSM750 and Micrococcus luteus DSM1790
(§2) The tests were performed using the micro dilution method.
(§3) The determination of MIC values was performed according to the ninth edition of the Approved Standard M07-A9 (CLSI. Methods for Dilution Antimicrobial Susceptibility Tests for Bacteria That Grow Aerobically; Approved Standard-Ninth Edition. CLSI document M07-A9. Wayne, Pa.: Clinical and Laboratory Standards Institute; 2012.)
(§4) The test was carried out for the six different bacterial strains 20 μL of cryo stock of each strain were inoculated in 20 mL of LB media (Lysogeny broth: 10 g/L peptone, 5 g/L yeast extract, 5 g/L NaCl) followed by incubation over night at 37° C., 200 rpm. The test inoculum was adjusted by the 0.5 McFarland Standard (OD625 from 0.08 to 0.1). Within 15 min of preparation, the adjusted inoculum suspension was diluted in MHBII media (BBL™ Mueller-Hinton Broth II, Becton, Dickinson and Company, New Jersey/USA) so that each well contained approximately 5×10^5 CFU/mL in a final volume of 100 μL. 95 μL of the inoculum were applied per well and 5 μL of the (diluted) antibiotic substance were added.
(§5) Previously the dry antibiotic compounds were dissolved in DMSO (100%) with a concentration of 2560 μg/mL and the resulting stock solutions were further diluted in DMSO (100%). 5 μL of each antibiotic dilution were applied to the microdilution tray to reach final concentrations of 64 μg/mL to 0.008 μg/mL. One row of each well plate was left as a growth control without antibiotic substances and another row of the microdilution tray was used as sterility control (only MHB II-media). The antimicrobial effect of the solvent (DMSO) was tested by adding 5 μL DMSO to several wells without antibiotics.
(§6) Purity check and cell titer control were performed according to International Standard M07-A9 on Mueller-Hinton II Agar (Mueller Hinton II Broth, 15 g/L agar-agar).
(§7) Both microdilution trays and agar plates were incubated at 37° C. for 20 h and subsequently analyzed visually.

[2] = test system: E. coli BW25113; settings: Escherichia coli
Procedure: as §1, §2, §3, §4, §5, §6, §7

[3] = test system: E. coli DSM1116; settings: Escherichia coli
Procedure: as §1, §2, §3, §4, §5, §6, §7

[4] = test system: M. luteus DSM1790; settings: Micrococcus luteus; M. luteus DSM1790; 37° C., 20 h, MHBII media; read-out: MIC
Procedure: as §1, §2, §3, §4, §5, §6, §7

[5] = test system: M. phlei DSM750; settings: Mycolicibacterium phlei; M. phlei DSM750; 37° C., 20 h, MHBII media; read-out: MIC
Procedure: as §1, §2, §3, §4, §5, §6, §7

[6] = test system: S. typhimurium TA100; settings: Salmonella enterica; S. typhimurium TA100; 37° C., 20 h, MHBII media; read-out: MIC
Procedure: as §1, §2, §3, §4, §5, §6, §7

[7] = E. coli BW25113, 37° C., 20 h, MHBII media, read-out: MIC
[8] = E. coli DSM1116, 37° C., 20 h, MHBII media, read-out: MIC

In the case of COc1c(NC(=O)c2ccc(NC(=O)c3ccc(NC(=O)C(Cc4cnn[nH]4)NC(=O)c4ccc(NC(=O)/C(C)=C/c5ccc(O)cc5)cc4)nc3)c(OC)c2O)ccc(C(=O)O)c1O (stereo not drawn) [Compound 11], the MIC [1] is reported as 500 µg/mL (≈ 564 µM), the MIC [2, 7] is reported as 500 µg/mL (≈ 564 µM) and the MIC [3, 8] is reported as 1000 µg/mL (≈ 1130 µM). The MIC [4] was 4000 µg/mL (≈ 4520 µM), the MIC [5] was 8000 µg/mL (≈ 9030 µM) and the MIC [6] was 4000 µg/mL (≈ 4520 µM).
With COc1c(NC(=O)c2ccc(NC(=O)c3ccc(NC(=O)C(Cc4cnn[nH]4)NC(=O)c4ccc(NC(=O)/C(C)=C/c5ccc(O)cc5)nn4)cc3)c(OC)c2O)ccc(C(=O)O)c1O (stereo not drawn) [Compound 3] the MIC [1] was 1000 µg/mL (≈ 1130 µM), the MIC [2, 7] was 31 µg/mL (≈ 35 µM) and the MIC [3, 8] was 31 µg/mL (≈ 35 µM). It also gave an MIC [4] of 4000 µg/mL (≈ 4510 µM), an MIC [5] of 2000 µg/mL (≈ 2260 µM) and an MIC [6] of 31 µg/mL (≈ 35 µM).
Compound CC(C)Oc1c(NC(=O)c2ccc(NC(=O)[C@H](Cc3c[nH]nn3)NC(=O)c3ccc(NC(=O)c4ccc(C#N)cc4)cc3)cn2)ccc(C(=O)Nc2ccc(C(=O)O)cc2)c1O [Compound 17] has an MIC [1] of 31 µg/mL (≈ 37 µM), an MIC [2, 7] of 31 µg/mL (≈ 37 µM) and an MIC [3, 8] of 31 µg/mL (≈ 37 µM). For the same compound, the MIC [4] was 125 µg/mL (≈ 149 µM), the MIC [5] was 500 µg/mL (≈ 597 µM) and the MIC [6] was ≤ 16 µg/mL.
COc1c(NC(=O)c2ccc(NC(=O)c3ccc(NC(=O)C(Cc4cnn[nH]4)NC(=O)c4ccc(NC(=O)/C(C)=C/c5ccc(O)cc5)cn4)cn3)c(OC)c2O)ccc(C(=O)O)c1O (stereo not drawn) [Compound 14] was tested, and the MIC [1] was 125 µg/mL (≈ 141 µM), the MIC [2, 7] was 63 µg/mL (≈ 71 µM) and the MIC [3, 8] was ≤ 16 µg/mL. For the same compound, the MIC [4] was 125 µg/mL (≈ 141 µM), the MIC [5] was 4000 µg/mL (≈ 4510 µM) and the MIC [6] was ≤ 16 µg/mL.
COc1nc(C(=O)Nc2ccc(C(=O)O)c(O)c2OC)ccc1NC(=O)c1ccc(NC(=O)C(Cc2cnn[nH]2)NC(=O)c2ccc(NC(=O)/C(C)=C/c3ccc(O)cc3)cc2)cc1 (stereo not drawn) [Compound 6] was tested, and the MIC [1] was 250 µg/mL (≈ 287 µM), the MIC [2, 7] was 16 µg/mL (≈ 18.4 µM) and the MIC [3, 8] was 16 µg/mL (≈ 18.4 µM). For the same compound, the MIC [4] was 125 µg/mL (≈ 144 µM), the MIC [5] was 1000 µg/mL (≈ 1150 µM) and the MIC [6] was 31 µg/mL (≈ 35.6 µM).
For COc1c(NC(=O)c2ccc(NC(=O)c3ccc(NC(=O)C(Cc4cnn[nH]4)NC(=O)c4ccc(NC(=O)/C(C)=C/c5ccc(F)cc5)cn4)cc3O)c(OC)c2O)ccc(C(=O)O)c1O (stereo not drawn) [Compound 5], the MIC [1] was 250 µg/mL (≈ 277 µM), the MIC [2, 7] was 63 µg/mL (≈ 69.7 µM) and the MIC [3, 8] was 16 µg/mL (≈ 17.7 µM). For the same compound, the MIC [4] was 2000 µg/mL (≈ 2210 µM), the MIC [5] was 2000 µg/mL (≈ 2210 µM) and the MIC [6] was 16 µg/mL (≈ 17.7 µM).
For COc1c(NC(=O)c2ccc(NC(=O)[C@H](Cc3c[nH]nn3)NC(=O)c3ccc(NC(=O)/C(C)=C/c4ccc(O)cc4)cc3)cc2)ccc(C(=O)Nc2ccc(C(=O)O)cn2)c1O [Compound 21], the MIC [1] was 4000 µg/mL (≈ 4760 µM), the MIC ([2]; BW25113, 20 h) was 125 µg/mL (≈ 149 µM) and the MIC ([3]; DSM1116, 20 h) was 125 µg/mL (≈ 149 µM). It also gave an MIC [4] of 4000 µg/mL (≈ 4760 µM), an MIC [5] of 4000 µg/mL (≈ 4760 µM) and an MIC [6] of 16 µg/mL (≈ 19.1 µM).
C/C(=C\c1ccc(O)cc1)C(=O)Nc1ccc(C(=O)N[C@@H](Cc2c[nH]nn2)C(=O)Nc2ccc(C(=O)Nc3ccc(C(=O)Nc4ccc(C(=O)O)cc4)c(O)c3OC(C)C)nc2)cc1 [Compound 15] was tested, and the MIC [1] was ≤ 16 µg/mL, the MIC [2, 7] was 31 µg/mL (≈ 35.7 µM) and the MIC [3, 8] was 31 µg/mL (≈ 35.7 µM). For the same compound, the MIC [4] was 63 µg/mL (≈ 72.6 µM), the MIC [5] was 250 µg/mL (≈ 288 µM) and the MIC [6] was ≤ 16 µg/mL.
In the case of COc1c(NC(=O)c2ccc(NC(=O)c3ccc(NC(=O)C(Cc4cnn[nH]4)NC(=O)c4ccc(NC(=O)c5ccc(C#N)cc5)cn4)cn3)c(OC)c2O)ccc(C(=O)O)c1O (stereo not drawn) [Compound 13], the MIC [1] is reported as 125 µg/mL (≈ 146 µM), the MIC [2, 7] is reported as 31 µg/mL (≈ 36.2 µM) and the MIC [3, 8] is reported as 31 µg/mL (≈ 36.2 µM). For the same compound, the MIC [4] was 63 µg/mL (≈ 73.6 µM), the MIC [5] was 1000 µg/mL (≈ 1170 µM) and the MIC [6] was 4000 µg/mL (≈ 4670 µM).
With C/C(=C\c1ccc(O)cc1)C(=O)Nc1ccc(C(=O)N[C@@H](Cc2c[nH]nn2)C(=O)Nc2ccc(C(=O)Nc3ccc(C(=O)Nc4ccc(C(=O)O)cc4)c(O)c3OC(C)C)nc2)nc1 [Compound 16] the MIC [1] was ≤ 16 µg/mL, the MIC [2, 7] was ≤ 16 µg/mL and the MIC [3, 8] was 31 µg/mL (≈ 35.7 µM). The MIC [4] was ≤ 16 µg/mL, the MIC [5] was 31 µg/mL (≈ 35.7 µM) and the MIC [6] was ≤ 16 µg/mL.
With COc1c(NC(=O)c2ccc(NC(=O)C(Cc3cnn[nH]3)NC(=O)c3ccc(NC(=O)/C(C)=C/c4ccc(O)cc4)cn3)cc2)ccc(C(=O)Nc2ccc(C(=O)O)c(O)c2OCCO)c1O (stereo not drawn) [Compound 8] the MIC [1] was 2000 µg/mL (≈ 2180 µM), the MIC [2, 7] was 125 µg/mL (≈ 136 µM) and the MIC [3, 8] was 63 µg/mL (≈ 68.8 µM). The MIC [4] was 2000 µg/mL (≈ 2180 µM), the MIC [5] was 2000 µg/mL (≈ 2180 µM) and the MIC [6] was 31 µg/mL (≈ 33.8 µM).

Reference: patent US11358987B2, “Albicidin derivatives, their use and synthesis” (priority 2018, dated 2022)
